Reference: the NIST ThermoML archive (doi:10.1016/j.tca.2013.05.017)

Details: 101.33 kPa, Crystal 2, Small (less than 1 g) adiabatic calorimetry

O=S(=O)([O-])[O-].[Sr+2] [sulfuric acid, strontium salt (1:1)]
Details	molar entropy [J/K/mol]
5 K	0.01272
10 K	0.1188
15 K	0.4903
20 K	1.25
25 K	2.413
30 K	3.947
35 K	5.8
40 K	7.917
45 K	10.25
50 K	12.75
55 K	15.38
60 K	18.11
65 K	20.88
70 K	23.69
75 K	26.51
80 K	29.33
85 K	32.13
90 K	34.9
95 K	37.65
100 K	40.36
110 K	45.67
120 K	50.82
130 K	55.82
140 K	60.67
150 K	65.39
160 K	69.99
170 K	74.46
180 K	78.81
190 K	83.06
200 K	87.2
210 K	91.24
220 K	95.18
230 K	99.04
240 K	102.82
250 K	106.52
260 K	110.15
270 K	113.73
273.15 K	114.84
280 K	117.23
290 K	120.68
298.15 K	123.44
300 K	124.06
310 K	127.38
320 K	130.64
